The results in this text go back to patent publication US10028942B2 (priority 2013, dated 2018).

Structures are written as SMILES.

In the assay the target is T1, DLK (Homo sapiens, UniProt Q12852).
T1 sequence (Q12852 1-520): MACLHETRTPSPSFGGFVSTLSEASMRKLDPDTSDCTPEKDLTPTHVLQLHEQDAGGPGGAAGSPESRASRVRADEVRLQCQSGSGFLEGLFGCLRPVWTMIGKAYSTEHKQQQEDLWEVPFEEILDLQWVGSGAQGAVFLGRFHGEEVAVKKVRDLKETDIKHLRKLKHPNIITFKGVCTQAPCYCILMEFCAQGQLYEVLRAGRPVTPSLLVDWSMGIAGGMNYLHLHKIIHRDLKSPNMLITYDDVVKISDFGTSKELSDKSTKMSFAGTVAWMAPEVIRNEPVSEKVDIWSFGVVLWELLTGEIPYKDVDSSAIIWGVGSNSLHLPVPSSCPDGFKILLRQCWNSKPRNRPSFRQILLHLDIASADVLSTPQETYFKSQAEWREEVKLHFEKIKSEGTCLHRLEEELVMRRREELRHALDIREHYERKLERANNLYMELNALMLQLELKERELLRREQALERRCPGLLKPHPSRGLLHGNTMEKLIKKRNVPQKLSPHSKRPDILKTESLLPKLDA
The note with it: read-out: DLK (Ki) μM; TR-FRET; 5 nM GST-tagged DLK (catalytic domain aa 1-520), 40 nM HIS-MKK4 K131M substrate, 30 μM ATP, 60 minutes.

The Ki is the equilibrium dissociation constant of an inhibitor or competing ligand from its target.

For `CC(C)n1nc(-c2cnc(N)c(OC(F)F)c2)cc1C(C)(C)O` [Compound 3, 2-(3-(6-amino-5-(difluoromethoxy)pyridin-3-yl)-1-isopropyl-1H-pyrazol-5-yl)propan-2-ol], the Ki was determined as 0.14 µM.
For `CCOc1cc(-c2cc(C3CCN(C4COC4)CC3)n(C(C)C)n2)cnc1N` [Compound 83, 3-ethoxy-5-(1-isopropyl-5-(1-(oxetan-3-yl)piperidin-4-yl)-1H-pyrazol-3-yl)pyridin-2-amine], the inhibition constant Ki was found to be 0.39 µM.
To `CC(=O)N1CCC(c2cc(-c3cnc4[nH]cc(C(F)(F)F)c4c3)nn2C(C)C)CC1` [Compound 50, 1-(4-(1-isopropyl-3-(3-(trifluorometh-yl)-1H-pyrrolo[2,3-b]pyridin-5-yl)-1H-pyrazol-5-yl)piperidin-1-yl)etha-none] belongs 0.0037 µM; to `Nc1ncc(-c2cc([C@H]3[C@@H]4CN(C5COC5)C[C@@H]43)n(C3CC3)n2)cc1C(F)(F)F` [Compound 168, 5-(1-cyclopropyl-5-((1R,5S,6r)-3-(oxe-tan-3-yl)-3-azabicyclo[3.1.0]hexan-6-yl)-1H-pyrazol-3-yl)-3-(trifluoro-methyl)pyridin-2-amine], 0.0047 µM; to `CC(C)n1nc(-c2cnc3[nH]cc(C#N)c3c2)cc1C1CN(C2COC2)C1` [Compound 59, 5-(1-isopropyl-5-(1-(oxetan-3-yl)aze-tidin-3-yl)-1H-pyrazol-3-yl)-1H-pyrro-lo[2,3-b]pyridine-3-carbonitrile], 0.31 µM.
The figure for `FC(F)(F)c1c[nH]c2ncc(-c3cc(C4CCOC4)n(C4CCOC4)n3)cc12` (centres unmarked) [Compound 15, 5-(1,5-bis(tetrahydrofuran-3-yl)-1H-pyrazol-3-yl)-3-(trifluoromethyl)-1H-pyrrolo[2,3-b]pyridine] is 0.035 µM.
As to `CC(C)n1nc(-c2cnc3c(c2)C(C)(C)CN3)cc1C1CCN(C2COC2)CC1` [Compound 95, 5-(1-isopropyl-5-(1-(oxetan-3-yl)piperidin-4-yl)-1H-pyrazol-3-yl)-3,3-dimethyl-2,3-dihydro-1H-pyrrolo[2,3-b]pyridine], the inhibitory constant (Ki) was determined as 1.2 µM.
The figure for `COCCN1C[C@@H]2[C@H](C1)[C@H]2c1cc(-c2cnc(N)c(C(F)(F)F)c2)nn1CC1CC1` [Compound 122, 5-(1-(cyclopropylmethyl)-5-((1R,5S, 6r)-3-(2-methoxyethyl)-3-azabicyclo [3.1.0]hexan-6-yl)-1H-pyrazol-3-yl)-3-(trifluoromethyl)pyridin-2-amine] is 0.0079 µM; for `CC(C)n1nc(-c2cnc(N)c(C(F)(F)F)c2)cc1C1CCN(C2CCC2)CC1` [Compound 102, 5-(5-(1-cyclobutylpiperidin-4-yl)-1-isopropyl-1H-pyrazol-3-yl)-3-(trifluoromethyl)pyridin-2-amine] it is 0.034 µM.
On to `COCCN1C[C@@H]2[C@H](C1)[C@H]2c1cc(-c2cnc(N)c(Cl)c2)nn1CC(C)C` [Compound 120, 3-chloro-5-(1-isobutyl-5-((1R,5S,6r)-3-(2-methoxyethyl)-3-azabicyclo[3.1.0]hexan-6-yl)-1H-pyrazol-3-yl)pyri-din-2-amine], for which the Ki was 0.03 µM.
The figure for `COc1cc(-c2cc(C3CCN(C4COC4)CC3)n(C3CCCC3)n2)cnc1N` [Compound 88, 5-(1-cyclopentyl-5-(1-(oxetan-3-yl)piperidin-4-yl)-1H-pyrazol-3-yl)-3-methoxypyridin-2-amine] is 0.26 µM; for `Nc1ncc(-c2cc([C@H]3[C@@H]4COC[C@@H]43)n(C3CCCC3)n2)cc1Cl` [Compound 105, 5-(5-((1R,5S,6s)-3-oxabicyclo[3.1.0]hexan-6-yl)-1-cyclopentyl-1H-pyra-zol-3-yl)-3-chloropyridin-2-amine] it is 0.096 µM; for `CC(C)n1nc(-c2cnc3[nH]cc(F)c3c2)cc1C1CCN(C2COC2)CC1` [Compound 75, 3-fluoro-5-(1-isopropyl-5-(1-(oxetan-3-yl)piperidin-4-yl)-1H-pyrazol-3-yl)-1H-pyrrolo[2,3-b]pyridine] it is 0.096 µM.
To `Nc1ncc(-c2cc(C3CCN(C4COC4)CC3)n(C3CCCC3)n2)cc1C(F)(F)F` [Compound 81, 5-(1-cyclopentyl-5-(1-(oxetan-3-yl)piperidin-4-yl)-1H-pyrazol-3-yl)-3-(trifluoromethyl)pyridin-2-amine] belongs 0.084 µM; to `CC(C)n1nc(-c2cnc(N)c(C(C)(F)F)c2)cc1[C@H]1[C@@H]2CN(C3COC3)C[C@@H]21` [Compound 175, 3-(1,1-difluoroethyl)-5-(1-isopropyl-5-((1R,5S,6r)-3-(oxetan-3-yl)-3-aza-bicyclo[3.1.0]hexan-6-yl)-1H-pyrazol-3-yl)pyridin-2-amine], 0.0092 µM; to `COc1cc(-c2cc([C@H]3[C@@H]4CN(C5COC5)C[C@@H]43)n(C3CCCC3)n2)cnc1N` [Compound 157, 5-(1-cyclopentyl-5-((1R,5S,6r)-3-(oxe-tan-3-yl)-3-azabicyclo[3.1.0]hexan-6-yl)-1H-pyrazol-3-yl)-3-methoxy-pyridin-2-amine], 0.035 µM.
To `Nc1ncc(-c2cc([C@H]3[C@@H]4CN(C5COC5)C[C@@H]43)n(CC3CC3)n2)cc1C1CC1` [Compound 161, 3-cyclopropyl-5-(1-(cyclopropylmeth-yl)-5-((1R,5S,6r)-3-(oxetan-3-yl)-3-azabicyclo[3.1.0]hexan-6-yl)-1H-pyrazol-3-yl)pyridin-2-amine] belongs 0.021 µM; to `CC(C)n1nc(-c2cnc3[nH]cc(C#N)c3c2)cc1[C@H]1[C@@H]2CN(C3COC3)C[C@@H]21` [Compound 132, 5-(1-isopropyl-5-((1R,5S,6r)-3-(oxetan-3-yl)-3-azabicyclo[3.1.0]hexan-6-yl)-1H-pyrazol-3-yl)-1H-pyrrolo[2,3-b]pyridine-3-carbonitrile], 0.025 µM.
Turning to `Nc1ncc(-c2cc([C@H]3[C@@H]4CN(C5COC5)C[C@@H]43)n(C3CCCC3)n2)cc1OC(F)(F)F` [Compound 166, 5-(1-cyclopentyl-5-((1R,5S,6r)-3-(oxe-tan-3-yl)-3-azabicyclo[3.1.0]hexan-6-yl)-1H-pyrazol-3-yl)-3-(trifluoro-methoxy)pyridin-2-amine], the inhibition constant (Ki) amounted to 0.0047 µM.
The figure for `CC(C)n1nc(-c2cnc(N)c(C(F)(F)F)c2)cc1C1CCN(CC#N)CC1` [Compound 52, 2-(4-(3-(6-amino-5-(trifluoromethyl)pyridin-3-yl)-1-isopropyl-1H-pyrazol-5-yl)piperidin-1-yl)acetonitrile] is 0.056 µM; for `Nc1ncc(-c2cc(C3CCOC3)n(C3CC(F)(F)C3)n2)cc1Cl` (centres unmarked) [Compound 25, 3-chloro-5-(1-(3,3-difluorocyclobut-yl)-5-(tetrahydrofuran-3-yl)-1H-pyra-zol-3-yl)pyridin-2-amine] it is 0.55 µM.
To `N#Cc1cc(-c2cc(C3CCN(C4COC4)CC3)n(C3CCCC3)n2)cnc1N` [Compound 93, 2-amino-5-(1-cyclopentyl-5-(1-(oxetan-an-3-yl)piperidin-4-yl)-1H-pyrazol-3-yl)nicotinonitrile] belongs 0.17 µM; to `Nc1ncc(-c2cc([C@H]3[C@@H]4CN(C5COC5)C[C@@H]43)n(C3CCC3)n2)cc1C(F)(F)F` [Compound 148, 5-(1-cyclobutyl-5-((1R,5S,6r)-3-(oxetan-3-yl)-3-azabicyclo[3.1.0]hexan-6-yl)-1H-pyrazol-3-yl)-3-(trifluoromethyl)pyridin-2-amine], 0.0012 µM.
